# Data as given in patent publication EP4257135A1, “BENZIMIDAZOLE DERIVATIVES FOR PULMONARY ARTERIAL HYPERTENSION” (Justus-Liebig-Universität Gießen, priority 2022, dated 2023).
# Tests used:
# [1] = tested on: PAH-SMCs; test: Hyperproliferative phenotype of PAH smooth muscle cells; assay type: cell-based, human; conditions: vs DMSO
# Excerpt: PAH-FBs wurden mit verschiedenen Konzentrationen der Substanz SGC-CBP30 oder dem Lösungsmittel DMSO inkubiert, um die Zellproliferation und die Induktion von Apoptose 24 Stunden danach zu untersuchen. Die Wirkung der selektiven EP300/CREBBP-Inhibition auf die Zellproliferation wurde durch den Einbau von BrdU (Bromodeoxyuridin, 5-Bromo-2'-Deoxyuridin, BUdR, BrdUrd, Broxuridine) bewertet. Die Wirkung der Substanz SGC-CBP30 oder des Lösungsmittels DMSO auf die Induktion von Apoptose wurde durch Cell Death Detection ELISAPLUS bewertet. Dabei zeigten sich deutliche Unterschiede zwischen der Substanz SGC-CBP30 und dem Lösungsmittel DMSO.
# Das therapeutische Potenzial der EP300/CREBBP-Hemmung durch die Substanz SGC-CBP30 wurde untersucht. Dazu wurde die Wirksamkeit auf PAH-FBs und PAH-SMCs geprüft, die aus den Lungenarterien von menschlichen PAH-Patienten und aus den Lungenarterien von Ratten mit MCT-PAH (Rattenmodell mit Monocrotalin) isoliert wurden. […] Die Wirkung der EP300-Hemmung auf das vaskuläre Remodelling wurde durch Quantifizierung der prozentualen medialen Wanddicke in den mit der Substanz SGC-CBP30 inkubierten PCLS im Vergleich zu den mit DMSO inkubierten Kontrollen bewertet. Dabei zeigten sich deutliche Unterschiede zwischen der Substanz SGC-CBP30 und DMSO.
# [2] = tested on: PAH-FBs; test: Cell proliferation by BrdU incorporation in PAH fibroblasts; assay type: cell-based, human; conditions: PAH-FBs isolated ex vivo; various concentrations; vs DMSO; 24 h
# Excerpt: Diese Untersuchungen führten zu der Erkenntnis, dass die epigenetische Regulation der entwicklungsbedingten TF-Expression in der Lunge durch Modulation der EP300/CREBBP-Funktion rückgängig gemacht werden kann. Die Wirkung des niedermolekularen Inhibitors (Substanz, Wirkstoff) SGC-CBP30 auf die Proliferation von Gefäßzellen, die Apoptose sowie die Gen- und Proteinexpression wurde mit Hilfe geeigneter Assays nach der Transfektion untersucht. Nachdem Zellen zur Subkonfluenz gewachsen sind, wurde ihnen mit steigenden Konzentrationen der selektive EP300-Inhibitor SGC-CBP30 (Sigma, Katalognummer: SML1133) hinzugefügt. Die aus PAH-Patienten isolierten FBs wurden also mit dem isoformselektiven HAT-Inhibitor SGC-CBP30 behandelt. Gleichzeitig wurde den Zellen das Lösungsmittel DMSO (Sigma) mit entsprechenden Konzentrationen hinzugefügt. […]
# • A: PAH-FBs wurden mit siRNAs (siP300) behandelt, die auf EP300 abzielen (n=3), um die genspezifische funktionelle Rolle von EP300 bei der Hyperproliferation ex vivo 48 Stunden nach der Transfektion zu untersuchen. […] Skalenbalken: 50 µm. • E: Die Wirkung der P300-Inhibition (200 µM) auf den Gefäßumbau wurde durch Quantifizierung der prozentualen medialen Wanddicke in den mit dem EP300/CREBBP-Inhibitor SGC-CBP30 inkubierten PCLS im Vergleich zu den mit DMSO inkubierten Kontrollen bewertet. […]
compound,measurement,setting,value
"COc1ccc(CCc2nc3cc(-c4c(C)noc4C)ccc3n2C[C@H](C)N2CCOCC2)cc1Cl [SGC-CBP30, 2-[2-(3-Chloro-4-methoxyphenyl)ethyl]-5-(3,5-dimethyl-1,2-oxazol-4-yl)-1-[(S)-2-(morpholin-4-yl)propyl]-1H-benzimidazole]",hyperproliferativer Phänotyp,[1],schwächte den hyperproliferativen Phänotyp und die Apoptoserate von PAH-FBs und PAH-SMCs deutlich ab
same,"hyperproliferativer Phänotyp (Zellproliferation, BrdU)",[2],schwächte den hyperproliferativen Phänotyp und die Apoptoserate von PAH-FBs und PAH-SMCs deutlich ab
